Measurements taken from paper PMC11767451, “Novel Approaches to Monitor Pharmacokinetics and Metabolism of Gemcitabine-Ibandronate Conjugate in Mice and Dogs” (Molecules, 2025).
Like-named read-outs stand apart in the source and are kept apart here.

What was measured:
[1] = cited from earlier work
[2] = design: method as in PMID 36571444, PMID 24131140, PMID 21561347; conditions: cancer patients; cited from earlier work
[3] = design: method as in PMID 33744463; conditions: (enriched) mouse plasma; cited from earlier work
[4] = Stability in dog plasma (accelerated, freeze-thaw, frozen PK samples); assay type: in vitro ADME; conditions: dog plasma PK samples re-extracted after 2.5 years at <−70 °C
[5] = Stability in mouse plasma (accelerated, freeze-thaw, frozen PK samples); assay type: in vitro ADME; conditions: mouse plasma PK samples re-extracted after 2.5 years at <−70 °C

Structure (SMILES) | duration stable in human plasma ([1]; −70 °C) | fatal treatment-related events, share of patients [2] | duration stable in mouse plasma [3] | %-ACC, frozen PK sample stability [4] | %-ACC, frozen PK sample stability [5] | duration stable in human plasma ([1]; −20 °C)
Nc1ccn([C@@H]2O[C@H](CO)[C@@H](O)C2(F)F)c(=O)n1 [GEM, gemcitabine] | up to 30 days | <1% to 4 | up to 42 days |  |  | 
Nc1ccn([C@@H]2O[C@H](COP(=O)(O)O)[C@@H](O)C2(F)F)c(=O)n1 [GEMMP, gemcitabine-5′-phosphate] |  |  |  | 58.1% | 64.0% | 
CCCCCN(C)CCC(O)(P(=O)(O)O)P(=O)(O)O [IB, ibandronate] |  |  |  |  |  | up to 4 months
O=c1ccn([C@@H]2O[C@H](CO)[C@@H](O)C2(F)F)c(=O)[nH]1 [dFdU, 2′,2′-difluoro-2′-deoxyuridine] |  |  | up to 42 days | 63.4% | 71.5% | 
O=c1ccn([C@@H]2O[C@H](COP(=O)(O)O)[C@@H](O)C2(F)F)c(=O)[nH]1 [dFdUMP, 2′,2′-difluoro-2′-deoxyuridine-5′-phosphate] |  |  |  | 49.3% | 108.1% | 
